Among the targets are Cytochrome P450 2D6 (Homo sapiens, UniProt P10635); Cytochrome P450 3A4 (Homo sapiens, UniProt P08684); Cytochrome P450 2C9 (Homo sapiens, UniProt P11712).
The next data set addresses T1, Bcl-2-related protein A1 (Mus musculus, UniProt Q07440).
T1 sequence (Q07440 whole entry): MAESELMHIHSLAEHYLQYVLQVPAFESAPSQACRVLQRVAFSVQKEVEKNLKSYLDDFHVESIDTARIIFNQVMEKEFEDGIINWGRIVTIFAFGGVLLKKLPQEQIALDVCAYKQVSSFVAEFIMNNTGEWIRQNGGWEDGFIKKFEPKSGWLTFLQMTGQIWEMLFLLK
Type of data set: functional.

Data set [1] concerns the target T2, Ubiquitin-conjugating enzyme E2 N (Homo sapiens, UniProt P61088).
T2 sequence (P61088 whole entry): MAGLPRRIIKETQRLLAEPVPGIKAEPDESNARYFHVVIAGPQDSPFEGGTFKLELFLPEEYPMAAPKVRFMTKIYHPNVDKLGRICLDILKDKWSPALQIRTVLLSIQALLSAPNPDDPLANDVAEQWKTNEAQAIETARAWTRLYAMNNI
Type of data set: functional.

Data set [2] deals with T2, Ubiquitin-conjugating enzyme E2 N. Type of data set: functional. This is another data set of the same source.
The target in data set [3] is T3, Short transient receptor potential channel 4 (Mus musculus, UniProt Q9QUQ5).
T3 sequence (Q9QUQ5 whole entry): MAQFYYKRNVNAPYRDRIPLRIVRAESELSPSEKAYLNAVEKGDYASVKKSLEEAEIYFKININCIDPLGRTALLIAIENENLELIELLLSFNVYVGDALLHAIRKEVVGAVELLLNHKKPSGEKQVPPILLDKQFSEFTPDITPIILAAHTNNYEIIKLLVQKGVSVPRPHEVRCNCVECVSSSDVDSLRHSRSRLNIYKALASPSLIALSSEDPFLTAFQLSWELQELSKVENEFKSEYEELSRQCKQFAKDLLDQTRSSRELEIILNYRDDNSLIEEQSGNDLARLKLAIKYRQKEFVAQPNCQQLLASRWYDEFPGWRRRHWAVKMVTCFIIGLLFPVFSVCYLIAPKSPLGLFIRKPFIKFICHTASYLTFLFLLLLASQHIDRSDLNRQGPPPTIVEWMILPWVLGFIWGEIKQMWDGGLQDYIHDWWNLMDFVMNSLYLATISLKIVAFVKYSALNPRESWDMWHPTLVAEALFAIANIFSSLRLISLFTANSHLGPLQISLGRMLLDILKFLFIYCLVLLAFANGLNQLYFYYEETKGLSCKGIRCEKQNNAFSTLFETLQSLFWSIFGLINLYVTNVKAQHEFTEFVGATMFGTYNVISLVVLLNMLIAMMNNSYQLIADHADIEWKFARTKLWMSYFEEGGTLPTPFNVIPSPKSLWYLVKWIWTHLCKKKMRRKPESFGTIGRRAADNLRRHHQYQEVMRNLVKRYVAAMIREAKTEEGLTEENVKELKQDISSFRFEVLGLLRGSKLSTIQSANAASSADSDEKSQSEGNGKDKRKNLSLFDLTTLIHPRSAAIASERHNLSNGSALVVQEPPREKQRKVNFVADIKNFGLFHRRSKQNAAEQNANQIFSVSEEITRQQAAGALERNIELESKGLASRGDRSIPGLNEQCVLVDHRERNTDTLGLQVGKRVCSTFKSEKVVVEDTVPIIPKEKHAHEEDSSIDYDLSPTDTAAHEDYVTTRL
Nature of the data set: mouse TRPC4 channel activators, dose response, cell-based, HEK293 TRPC4/mu-opioid, Fluo-4 calcium (AID 434937). Type of data set: functional.

Data set [4] has as its target T4, Tyrosine-protein phosphatase non-receptor type 7 (Homo sapiens, UniProt P35236).
T4 sequence (P35236 whole entry): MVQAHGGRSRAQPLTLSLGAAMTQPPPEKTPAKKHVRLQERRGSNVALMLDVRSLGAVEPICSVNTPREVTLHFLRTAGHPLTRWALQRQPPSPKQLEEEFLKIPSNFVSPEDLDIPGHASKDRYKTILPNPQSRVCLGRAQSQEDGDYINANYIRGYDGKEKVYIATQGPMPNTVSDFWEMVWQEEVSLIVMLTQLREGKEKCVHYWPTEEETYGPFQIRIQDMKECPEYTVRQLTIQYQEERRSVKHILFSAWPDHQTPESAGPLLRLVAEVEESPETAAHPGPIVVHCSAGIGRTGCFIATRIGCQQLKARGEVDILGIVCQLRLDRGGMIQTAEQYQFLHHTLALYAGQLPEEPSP
Type of data set: functional.

Data set [5] concerns the target T5, Tyrosine-protein phosphatase non-receptor type 22 (Homo sapiens, UniProt Q9Y2R2).
T5 sequence (Q9Y2R2 whole entry): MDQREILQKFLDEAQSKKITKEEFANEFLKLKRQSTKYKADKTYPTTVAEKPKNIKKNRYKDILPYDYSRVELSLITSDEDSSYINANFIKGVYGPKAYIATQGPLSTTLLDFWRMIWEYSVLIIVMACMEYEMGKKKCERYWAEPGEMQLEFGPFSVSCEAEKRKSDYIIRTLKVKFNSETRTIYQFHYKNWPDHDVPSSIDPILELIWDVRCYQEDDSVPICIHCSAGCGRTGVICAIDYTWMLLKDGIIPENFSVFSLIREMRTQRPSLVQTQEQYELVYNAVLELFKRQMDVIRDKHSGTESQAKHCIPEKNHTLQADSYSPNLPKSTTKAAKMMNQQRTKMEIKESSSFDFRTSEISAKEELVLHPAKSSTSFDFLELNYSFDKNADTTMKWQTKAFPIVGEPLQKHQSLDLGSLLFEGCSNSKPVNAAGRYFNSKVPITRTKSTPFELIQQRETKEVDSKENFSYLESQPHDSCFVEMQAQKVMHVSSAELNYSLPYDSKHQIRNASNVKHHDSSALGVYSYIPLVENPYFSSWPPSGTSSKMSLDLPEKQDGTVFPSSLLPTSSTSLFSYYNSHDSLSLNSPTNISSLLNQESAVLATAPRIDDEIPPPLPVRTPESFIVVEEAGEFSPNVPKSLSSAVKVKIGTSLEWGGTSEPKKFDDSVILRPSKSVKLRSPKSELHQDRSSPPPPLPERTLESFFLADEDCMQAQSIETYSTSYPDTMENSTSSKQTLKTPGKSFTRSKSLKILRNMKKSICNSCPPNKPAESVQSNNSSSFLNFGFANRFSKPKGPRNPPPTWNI
Type of data set: functional.

The target in data set [6] is T5, Tyrosine-protein phosphatase non-receptor type 22. The format is functional. This is another data set of the same source.
Another data set deals with CHO-K1. Put plainly: Counterscreen for antagonists of the orexin 1 receptor (OX1R; HCRTR1): Homogeneous time resolved fluorescence (HTRF)-based cell-based dose response assay to identify antagonists of the parental CHO-K1 cell line. [Related pubchem assays (depositor defined):AID434989, AID435008, AID463079, AID485270, AID492963, AID492964, AID492965, AID493232, AID504699, AID504701]. Conditions: Cricetulus griseus. The format is functional. On the technique in general: A counterscreen serves to expose hits that act by an unwanted route or on another target.

The target of data set [7] is T6, Orexin/Hypocretin receptor type 1 (Homo sapiens, UniProt O43613).
T6 sequence (O43613 whole entry): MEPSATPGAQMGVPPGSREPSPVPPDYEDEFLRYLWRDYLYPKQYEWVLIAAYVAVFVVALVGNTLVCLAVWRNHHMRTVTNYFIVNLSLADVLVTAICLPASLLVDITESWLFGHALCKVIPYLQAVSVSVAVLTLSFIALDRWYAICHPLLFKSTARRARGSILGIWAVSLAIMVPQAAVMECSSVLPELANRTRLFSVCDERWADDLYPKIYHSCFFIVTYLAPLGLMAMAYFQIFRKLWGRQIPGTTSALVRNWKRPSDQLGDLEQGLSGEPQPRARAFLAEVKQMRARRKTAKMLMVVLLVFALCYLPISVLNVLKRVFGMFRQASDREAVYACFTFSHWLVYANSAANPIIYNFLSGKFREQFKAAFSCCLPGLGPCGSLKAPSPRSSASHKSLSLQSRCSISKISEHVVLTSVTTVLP
Put plainly: Homogeneous Time Resolved Fluorescence (HTRF)-based cell-based high throughput dose response assay for antagonists of the orexin 1 receptor (OX1R; HCRTR1). [Related pubchem assays (depositor defined):AID434989, AID435008, AID463079, AID485270, AID492963, AID492964, AID492965, AID493232, AID504717, AID504718]. The format is functional. (In general: In TR-FRET formats the signal depends on donor and acceptor labels being close together.)

The nature of data set [8]: Counterscreen for antagonists of the orexin 1 receptor (OX1R; HCRTR1): Fluorescence-based cell-based high throughput dose response assay to identify antagonists of the parental CHO cell line. [Related pubchem assays (depositor defined):AID434989, AID435008, AID463079, AID485270, AID492963, AID492964, AID492965, AID493232, AID504699, AID504701]. Type of data set: functional.

For data set [9], the target named is T6, Orexin/Hypocretin receptor type 1. Nature of the data set: Fluorescence-based cell-based high throughput dose response assay for antagonists of the orexin 1 receptor (OX1R; HCRTR1). [Related pubchem assays (depositor defined):AID434989, AID435008, AID463079, AID485270, AID492963, AID492964, AID492965, AID493232, AID504717, AID504718]. Type of data set: functional.

In a further data set the target is T7, Cytochrome P450 1A2 (Homo sapiens, UniProt P05177).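 Also: PubChem cytochrome P450 panel assay, CYP1A2 panel member.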
T7 sequence (P05177 whole entry): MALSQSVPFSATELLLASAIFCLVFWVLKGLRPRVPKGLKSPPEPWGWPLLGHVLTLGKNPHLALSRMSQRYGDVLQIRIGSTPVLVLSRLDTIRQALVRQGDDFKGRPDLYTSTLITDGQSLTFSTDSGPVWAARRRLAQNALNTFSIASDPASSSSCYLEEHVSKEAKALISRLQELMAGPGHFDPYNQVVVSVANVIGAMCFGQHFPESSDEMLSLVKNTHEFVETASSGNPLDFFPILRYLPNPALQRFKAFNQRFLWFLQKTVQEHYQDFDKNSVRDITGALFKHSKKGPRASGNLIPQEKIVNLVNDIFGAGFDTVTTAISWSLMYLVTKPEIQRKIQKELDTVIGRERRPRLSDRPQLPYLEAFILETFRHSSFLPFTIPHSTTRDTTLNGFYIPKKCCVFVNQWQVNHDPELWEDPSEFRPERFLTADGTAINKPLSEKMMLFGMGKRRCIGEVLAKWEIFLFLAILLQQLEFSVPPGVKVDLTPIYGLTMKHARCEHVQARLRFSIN

The target in data set [10] is T8, Beta-lactamase (Pseudomonas aeruginosa, UniProt Q79MP6). Put plainly: […] counterscreen for selective VIM-2 inhibitors: dose response biochemical high throughput screening assay to identify inhibitors of IMP-1 metallo-beta-lactamase.
T8 sequence (Q79MP6 whole entry): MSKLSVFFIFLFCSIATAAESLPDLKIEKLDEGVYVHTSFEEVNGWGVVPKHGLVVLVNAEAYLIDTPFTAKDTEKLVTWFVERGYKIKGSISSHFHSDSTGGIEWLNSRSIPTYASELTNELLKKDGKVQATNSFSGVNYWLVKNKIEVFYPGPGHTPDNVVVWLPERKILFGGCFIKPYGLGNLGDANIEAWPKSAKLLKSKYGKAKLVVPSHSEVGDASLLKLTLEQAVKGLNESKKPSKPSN
Data set [11] concerns the target Beta-lactamase (Salmonella choleraesuis (strain SC-B67), UniProt Q5J463). Put plainly: Epi-absorbance-based counterscreen for selective VIM-2 inhibitors: dose response biochemical high throughput screening assay to identify inhibitors of TEM-1 serine-beta-lactamase.
Data set [12] has as its target T8, Beta-lactamase. Put plainly: IMP-1 metallo-beta-lactamase inhibitors, dose response, selectivity assay for VIM-2 inhibitor project, biochemical, epi-absorbance (AID 1920).
Data set [13] can be described thus: Luminescence Cell-Based Dose Confirmation HTS to Identify Inhibitors of Platelet Dense Granule Release. [Related pubchem assays: 1663 (Primary HTS), 1678 (Summary of Project)]. Type of data set: functional.
The target in data set [14] is Luciferin 4-monooxygenase (Photinus pyralis, UniProt P08659). Nature of the data set: firefly luciferase enzyme inhibitors, dose response, biochemical, luminescence (AID 1891).
Luciferin 4-monooxygenase, sequence (P08659 whole entry): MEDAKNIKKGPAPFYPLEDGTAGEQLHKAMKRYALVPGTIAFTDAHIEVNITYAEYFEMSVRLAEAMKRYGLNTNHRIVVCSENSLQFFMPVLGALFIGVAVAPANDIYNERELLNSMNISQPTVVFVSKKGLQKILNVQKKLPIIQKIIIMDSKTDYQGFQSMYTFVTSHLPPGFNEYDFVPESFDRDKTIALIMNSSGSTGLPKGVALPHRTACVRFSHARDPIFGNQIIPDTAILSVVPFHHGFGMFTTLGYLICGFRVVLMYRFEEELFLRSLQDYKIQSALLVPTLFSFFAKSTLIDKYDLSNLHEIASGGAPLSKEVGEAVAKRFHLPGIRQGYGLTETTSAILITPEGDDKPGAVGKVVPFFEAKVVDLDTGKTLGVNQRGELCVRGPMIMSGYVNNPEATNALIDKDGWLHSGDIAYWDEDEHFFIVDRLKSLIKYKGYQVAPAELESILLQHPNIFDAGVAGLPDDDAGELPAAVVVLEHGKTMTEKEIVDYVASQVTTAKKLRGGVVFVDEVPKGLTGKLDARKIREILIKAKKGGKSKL

We go through eleven compounds from ChEMBL document CHEMBL1201862, “PubChem BioAssay data set” (2004).

Activity calls are given as the source filed them.

Cytochrome P450 3A4, sequence (P08684 whole entry): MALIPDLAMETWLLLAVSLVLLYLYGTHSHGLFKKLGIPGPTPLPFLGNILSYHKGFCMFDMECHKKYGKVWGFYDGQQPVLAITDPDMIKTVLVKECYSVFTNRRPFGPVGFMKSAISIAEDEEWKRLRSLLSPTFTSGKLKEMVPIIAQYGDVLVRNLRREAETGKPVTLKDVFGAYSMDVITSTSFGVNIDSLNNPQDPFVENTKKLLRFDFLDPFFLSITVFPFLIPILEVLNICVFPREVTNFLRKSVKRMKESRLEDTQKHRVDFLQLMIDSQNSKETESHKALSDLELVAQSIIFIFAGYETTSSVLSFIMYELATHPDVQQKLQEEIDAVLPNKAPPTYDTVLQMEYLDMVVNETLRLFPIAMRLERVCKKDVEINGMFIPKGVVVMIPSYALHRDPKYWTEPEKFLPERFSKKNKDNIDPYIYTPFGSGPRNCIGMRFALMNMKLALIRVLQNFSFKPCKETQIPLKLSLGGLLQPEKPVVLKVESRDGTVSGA
Cytochrome P450 2C9, sequence (P11712 whole entry): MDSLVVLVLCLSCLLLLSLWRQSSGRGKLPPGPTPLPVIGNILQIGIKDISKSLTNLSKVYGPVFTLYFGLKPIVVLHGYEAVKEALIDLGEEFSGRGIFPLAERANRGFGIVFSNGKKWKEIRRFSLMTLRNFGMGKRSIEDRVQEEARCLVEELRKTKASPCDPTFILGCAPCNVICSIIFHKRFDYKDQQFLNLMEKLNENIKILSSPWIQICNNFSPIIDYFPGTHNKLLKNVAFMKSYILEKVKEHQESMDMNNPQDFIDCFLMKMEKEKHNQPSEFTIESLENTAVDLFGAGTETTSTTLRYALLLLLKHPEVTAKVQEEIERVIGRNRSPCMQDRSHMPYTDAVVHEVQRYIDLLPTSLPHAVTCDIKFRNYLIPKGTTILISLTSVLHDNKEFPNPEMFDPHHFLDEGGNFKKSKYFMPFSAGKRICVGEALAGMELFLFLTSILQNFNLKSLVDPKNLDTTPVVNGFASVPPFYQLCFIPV
Cytochrome P450 2D6, sequence (P10635 whole entry): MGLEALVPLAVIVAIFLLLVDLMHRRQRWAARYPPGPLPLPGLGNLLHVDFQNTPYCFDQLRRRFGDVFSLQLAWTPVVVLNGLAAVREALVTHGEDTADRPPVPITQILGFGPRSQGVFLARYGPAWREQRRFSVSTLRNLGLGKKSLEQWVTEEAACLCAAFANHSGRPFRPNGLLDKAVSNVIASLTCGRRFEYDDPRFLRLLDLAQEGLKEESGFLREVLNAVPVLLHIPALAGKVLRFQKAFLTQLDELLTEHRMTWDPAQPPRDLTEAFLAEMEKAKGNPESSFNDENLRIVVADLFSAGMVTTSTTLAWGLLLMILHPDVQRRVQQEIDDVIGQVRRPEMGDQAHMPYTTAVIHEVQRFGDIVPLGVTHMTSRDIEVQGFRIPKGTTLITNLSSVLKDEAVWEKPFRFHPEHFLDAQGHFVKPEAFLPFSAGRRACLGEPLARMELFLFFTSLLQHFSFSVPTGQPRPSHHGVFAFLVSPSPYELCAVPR
Beta-lactamase (Salmonella choleraesuis (strain SC-B67), UniProt Q5J463), sequence (Q5J463 whole entry): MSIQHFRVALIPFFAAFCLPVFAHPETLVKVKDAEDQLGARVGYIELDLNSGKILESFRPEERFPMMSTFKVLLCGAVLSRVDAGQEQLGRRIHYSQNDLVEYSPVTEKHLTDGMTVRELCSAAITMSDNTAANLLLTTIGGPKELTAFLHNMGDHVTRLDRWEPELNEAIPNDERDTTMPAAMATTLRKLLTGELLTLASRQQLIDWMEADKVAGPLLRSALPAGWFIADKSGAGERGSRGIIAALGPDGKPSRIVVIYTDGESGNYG

On to `CCN(CC(=O)NCc1cccs1)C(=O)c1cccc(S(=O)(=O)Nc2ccccc2OC)c1`, for which the IC50 (commonly the concentration at which inhibition is half-maximal) is > 20 µM (inactive) on Bcl-2-related protein A1, 17.1 µM (active) in data set [1] and 11.3 µM (active) in data set [2].

For the compound `COc1ccc(-c2nn(-c3ccccc3)cc2CNCc2cccnc2)c(F)c1`, the EC50 (in general, the concentration that produces a half-maximal response) in [3] is 5.96 µM (active).

Consider `Cc1csc2c(N3CCN(C(=O)Nc4ccc(OC(F)(F)F)cc4)CC3)ncnc12`, for which, in [3], the 50% effective concentration (EC50) was 1.88 µM (active).

Take `Cc1c(NC(=O)CCCN2C(=O)c3cccc4cccc(c34)C2=O)c(=O)n(-c2ccccc2)n1C`: the IC50 at Bcl-2-related protein A1 is > 20 µM (inactive); in data set [1], 18.5 µM (active); in data set [2], 8.02 µM (active).

Consider `O=C(Cn1cnc2ccccc2c1=O)NCCC(=O)Nc1ccc2c(c1)OCCO2`, for which the AC50 result at Cytochrome P450 2D6 and at Cytochrome P450 3A4 was “inconclusive” in each case.

Turning to `COc1ccc(Cc2nnc(NC(=O)c3ccccc3F)s2)cc1OC`, the IC50 in data set [4], in [5] and in data set [6] was > 79.4 µM (inactive) throughout.

With `Oc1ccccc1-c1nc(NCC2CCCO2)c2ccccc2n1` (stereo not given), the IC50 is > 66.2 µM (inactive) with CHO-K1, 3.73 µM (active) in [7], 45.8 µM (inactive) in data set [8] and 8.66 µM (active) in data set [9].

`CCCC(=O)Nc1nnc(SCC(=O)NCc2cccs2)s1`: the AC50 (usually the midpoint of the concentration-response curve, whichever way the signal moves) is 10 µM (inconclusive) on Cytochrome P450 1A2 and “inconclusive” at Cytochrome P450 3A4. The IC50 on Beta-lactamase [10], on Beta-lactamase [11] and at Beta-lactamase [12] was > 59.6 µM (inactive) in each case.

With `COC(=O)COc1ccc(/C=C2/SC(=O)N(CC(=O)N3CCCC3)C2=O)cc1Br`, the concentration at half-maximal activity (AC50) on Cytochrome P450 2C9 was 10 µM (inconclusive); at Cytochrome P450 3A4, “inconclusive”.

For `CN1CCCC(OC(=O)c2cc(Br)ccc2Cl)C1` (stereo not given), the figures for the 50% effective concentration (EC50) in data set [13], in data set [14] and in data set [3] were > 56.1 µM (not active), > 112 µM (not active) and 0.211 µM (active), respectively.

For `CC1Cc2ccccc2N1CC(=O)Nc1cccc(S(N)(=O)=O)c1` (stereo not given), the IC50 in data set [4], in [5] and in [6] was > 79.4 µM (inactive) each time.
